Consider 28 compounds from PubChem BioAssay (NCI).

SMILES strings stand for the structures.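 Growth conditions: 96-well plates. Treatment: test compound, 48 hours, 5 concentrations. Analysis: linear interpolation between bracketing concentrations; unreached endpoints set to highest concentration. TGI is the concentration that stops growth completely.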 Bounds are passed on as bounds.

The first experiment relates to RXF 393 renal. In words: inhibition of tumour cell growth, NCI panel, 48 h.
Compound `CN1CSC(=S)N(c2c3ccccc3nc3ccc(Br)cc23)C1` showed a TGI of 24.7 µM.

Take `O=C(O)c1ccccc1CC1Cc2ccccc2C1=O` (stereo not drawn): the TGI is > 100 µM.

As for `NS(=O)(=O)c1cc(Cl)c(NC(=S)NC(=O)Nc2ccc(Cl)c(Cl)c2)c(Cl)c1`, the TGI was > 100 µM.

In the case of `Cc1cn(C2CC(O)C(CO)O2)c(=O)[nH]c1=O` (stereo not drawn), the TGI is > 5000 µM.

Take `CCOP(=O)(OCC)C(c1ccc(F)cc1)N(C(=O)NC(F)(F)F)c1ccc(OC)cc1` (stereo not drawn): the TGI was > 100 µM.

As for `CSC(=S)N/N=C(\C)c1ccc(S(=O)(=O)N(C)c2ccccc2)cc1`, the TGI is > 100 µM.

For `O=C1c2ccccc2-c2c1c(-c1ccc(F)cc1)nc1ccc3ccccc3c21`, the TGI is > 100 µM.

In the case of `COc1ccc2c(c1)/C(=C\c1c(Cl)nc3sc(C)cn13)C(=O)N2`, the TGI worked out at 21.1 µM.

As for `CCOC(=O)c1ccc(NCC#CCN2CCOCC2)cc1`, the TGI was > 100 µM.

As for `COc1ccc(-c2nc(SCC(=O)N/N=C/c3ccc(N(C)C)cc3)[nH]c2-c2ccc(OC)cc2)cc1`, the TGI is > 100 µM.

On to `COc1cccc2c(=O)oc(-c3ccc(C(C)(C)C)cc3)nc12`, for which the TGI was > 100 µM.

Consider `CCC1(CC)C(=O)NN(C(=O)c2ccccc2)C1=O`, for which the TGI was > 100 µM.

Take `Cc1cc(C(=O)CCCCOc2ccc(C3=NCCO3)cc2)c(C)n1C`: the TGI stood at 72.8 µM.

For `[O-][n+]1ccccc1Sc1nc(Sc2cccc[n+]2[O-])nc(Sc2cccc[n+]2[O-])n1`, the TGI was found to be 2.23 µM.

In the next experiment the test system is MALME-3M melanoma. Put plainly: inhibition of tumour cell growth, NCI panel, 48 h.
With `NS(=O)(=O)c1cc2c(cc1Cl)NC(CCC(=O)O)=NS2(=O)=O`, the TGI is > 100 µM.

In turn, `CCOC(=O)c1nc2c(nc1C(=O)OCC)C(=O)c1ccccc1C2=O` returned a TGI of 0.362 µM.

For `Cc1ccc2c(c1)C(=O)C1(Cc3ccccc3C1=O)C2` (stereo not drawn), the TGI was > 100 µM.

As for `CC(=O)Nc1nc(C#N)[nH]c1C#N`, the TGI is > 100 µM.

Take `O=C(O)/C=C(/C(=O)O)C12CCN3CC4=CCOC5CC(=O)NC1C5C4CC32` (stereo not drawn): the TGI is > 100 µM.

Regarding `Cc1c(S(=O)(=O)c2ccccc2)c(N)n(CCN(C)C)c1C`, the TGI was > 100 µM.

For the compound `CS(=O)c1ncc2c(n1)-c1ccccc1OC2` (stereo not drawn), the TGI was > 100 µM.

`O=[N+]([O-])c1ccc(Oc2c(Cl)cc(S(=O)(=O)/N=C(\NO)Nc3ccc(Cl)cc3)cc2Cl)cc1` showed a TGI of 29 µM.

In turn, `Cc1cc(N(CCOS(C)(=O)=O)CCOS(C)(=O)=O)ccc1C=O` had a TGI of 28.1 µM.

Take `O=c1[nH]c(=O)n(C2OC(CO)C(O)C2O)c2nc(-c3ccc(-c4ccccc4)cc3)cnc12` (stereo not drawn): the TGI was > 100 µM.

In the case of `CN1CSC(=S)N(c2c3ccccc3nc3ccc(Br)cc23)C1`, the TGI was determined as 33.2 µM.

On to `O=C(O)c1ccccc1CC1Cc2ccccc2C1=O` (stereo not drawn), for which the TGI is > 100 µM.

Take `NS(=O)(=O)c1cc(Cl)c(NC(=S)NC(=O)Nc2ccc(Cl)c(Cl)c2)c(Cl)c1`: the TGI is > 100 µM.

On to `Cc1cn(C2CC(O)C(CO)O2)c(=O)[nH]c1=O` (stereo not drawn), for which the TGI is > 4900 µM.

On to `CCOP(=O)(OCC)C(c1ccc(F)cc1)N(C(=O)NC(F)(F)F)c1ccc(OC)cc1` (stereo not drawn), for which the TGI is > 100 µM.

Consider `CSC(=S)N/N=C(\C)c1ccc(S(=O)(=O)N(C)c2ccccc2)cc1`, for which the TGI is 22.5 µM.

For the compound `O=C1c2ccccc2-c2c1c(-c1ccc(F)cc1)nc1ccc3ccccc3c21`, the TGI is > 100 µM.

Compound `COc1ccc2c(c1)/C(=C\c1c(Cl)nc3sc(C)cn13)C(=O)N2` came in with a TGI of 19.9 µM.

Consider `CCOC(=O)c1ccc(NCC#CCN2CCOCC2)cc1`, for which the TGI was > 100 µM.

As for `COc1ccc(-c2nc(SCC(=O)N/N=C/c3ccc(N(C)C)cc3)[nH]c2-c2ccc(OC)cc2)cc1`, the TGI was > 100 µM.

For `COc1cccc2c(=O)oc(-c3ccc(C(C)(C)C)cc3)nc12`, the TGI is > 100 µM.

As for `COc1ccc2c(c1)OCC1Cc3ccccc3OC21` (stereo not drawn), the TGI was > 100 µM.

On to `COC(=O)C1CCC(=O)N1C(c1ccc(OC)cc1)c1ccc2c(c1)OCO2` (stereo not drawn), for which the TGI was > 100 µM.

Turning to `CCOC(=O)c1cn2c(nc1=O)N[C@H]1CCCC[C@@H]12`, the TGI was > 100 µM.

Regarding `CCC1(CC)C(=O)NN(C(=O)c2ccccc2)C1=O`, the TGI is > 100 µM.

In the case of `CCNC(=O)Cc1nc2c(N)ncnc2n1C1OC(CO)C(O)C1O` (stereo not drawn), the TGI was > 100 µM.

As for `Cc1cc(C(=O)CCCCOc2ccc(C3=NCCO3)cc2)c(C)n1C`, the TGI was > 100 µM.

`[O-][n+]1ccccc1Sc1nc(Sc2cccc[n+]2[O-])nc(Sc2cccc[n+]2[O-])n1` registered a TGI of 4.06 µM.

The next experiment relates to SK-MEL-28 melanoma. Put plainly: inhibition of tumour cell growth, NCI panel, 48 h.
With `NS(=O)(=O)c1cc2c(cc1Cl)NC(CCC(=O)O)=NS2(=O)=O`, the TGI is > 100 µM.

Compound `CCOC(=O)c1nc2c(nc1C(=O)OCC)C(=O)c1ccccc1C2=O` registered a TGI of 3.01 µM.

In the case of `Cc1ccc2c(c1)C(=O)C1(Cc3ccccc3C1=O)C2` (stereo not drawn), the TGI is > 100 µM.

In the case of `CC(=O)Nc1nc(C#N)[nH]c1C#N`, the TGI was > 100 µM.

`O=C(O)/C=C(/C(=O)O)C12CCN3CC4=CCOC5CC(=O)NC1C5C4CC32` (stereo not drawn): the TGI was > 100 µM.

In the case of `Cc1c(S(=O)(=O)c2ccccc2)c(N)n(CCN(C)C)c1C`, the TGI was > 100 µM.

As to `CS(=O)c1ncc2c(n1)-c1ccccc1OC2` (stereo not drawn), the TGI was > 100 µM.

In the case of `O=[N+]([O-])c1ccc(Oc2c(Cl)cc(S(=O)(=O)/N=C(\NO)Nc3ccc(Cl)cc3)cc2Cl)cc1`, the TGI is 28.7 µM.

Compound `Cc1cc(N(CCOS(C)(=O)=O)CCOS(C)(=O)=O)ccc1C=O` displayed a TGI of 31.3 µM.

Regarding `CN1CSC(=S)N(c2c3ccccc3nc3ccc(Br)cc23)C1`, the TGI is 35.2 µM.

As to `O=C(O)c1ccccc1CC1Cc2ccccc2C1=O` (stereo not drawn), the TGI was > 100 µM.

On to `NS(=O)(=O)c1cc(Cl)c(NC(=S)NC(=O)Nc2ccc(Cl)c(Cl)c2)c(Cl)c1`, for which the TGI was > 100 µM.

Turning to `Cc1cn(C2CC(O)C(CO)O2)c(=O)[nH]c1=O` (stereo not drawn), the TGI was > 5000 µM.

On to `CCOP(=O)(OCC)C(c1ccc(F)cc1)N(C(=O)NC(F)(F)F)c1ccc(OC)cc1` (stereo not drawn), for which the TGI is > 100 µM.

For the compound `CSC(=S)N/N=C(\C)c1ccc(S(=O)(=O)N(C)c2ccccc2)cc1`, the TGI was > 100 µM.

Turning to `O=C1c2ccccc2-c2c1c(-c1ccc(F)cc1)nc1ccc3ccccc3c21`, the TGI is > 100 µM.

In the case of `COc1ccc2c(c1)/C(=C\c1c(Cl)nc3sc(C)cn13)C(=O)N2`, the TGI is 25.5 µM.

As for `CCOC(=O)c1ccc(NCC#CCN2CCOCC2)cc1`, the TGI was > 100 µM.

Regarding `COc1ccc(-c2nc(SCC(=O)N/N=C/c3ccc(N(C)C)cc3)[nH]c2-c2ccc(OC)cc2)cc1`, the TGI was > 100 µM.

`COc1cccc2c(=O)oc(-c3ccc(C(C)(C)C)cc3)nc12`: the TGI is > 100 µM.

For `COC(=O)C1CCC(=O)N1C(c1ccc(OC)cc1)c1ccc2c(c1)OCO2` (stereo not drawn), the TGI is > 100 µM.

Consider `CCOC(=O)c1cn2c(nc1=O)N[C@H]1CCCC[C@@H]12`, for which the TGI was > 100 µM.

With `CCC1(CC)C(=O)NN(C(=O)c2ccccc2)C1=O`, the TGI is > 100 µM.

`CCNC(=O)Cc1nc2c(N)ncnc2n1C1OC(CO)C(O)C1O` (stereo not drawn): the TGI was > 100 µM.

As for `Cc1cc(C(=O)CCCCOc2ccc(C3=NCCO3)cc2)c(C)n1C`, the TGI amounted to 83.1 µM.

`[O-][n+]1ccccc1Sc1nc(Sc2cccc[n+]2[O-])nc(Sc2cccc[n+]2[O-])n1` came in with a TGI of 3.25 µM.
